Drawing on PubChem BioAssay (NCI), this text covers GI50 and TGI for nine compounds.

Some test systems named below: UACC-62 melanoma; TK-10 renal; HCT-15 colon; SK-MEL-2 melanoma; OVCAR-4 ovarian; OVCAR-8 ovarian; K-562 leukemia; SNB-19 CNS; CCRF-CEM leukemia; NCI-H226 lung.
Holding throughout (assay): inhibition of tumour cell growth, NCI panel, 48 h

Where “and” joins values, the source holds several entries; their conditions need not be identical. Equal entries are not always repeated.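 Five compound concentrations were applied to cells in 96-well plates for 48 hours; endpoints were derived by simple linear interpolation of the resulting dose-response curve. Here, GI50 denotes the concentration required for 50% inhibition of growth. TGI denotes the concentration required for complete inhibition of growth.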 Where only a bound is given, the exact number is not on record here.

Regarding `Cn1c(-c2c(N)n(Cc3ccc(F)cc3)c3nc(C#N)c(C#N)nc23)nc2ccccc21`, the GI50 with UACC-62 melanoma is 3.37 µM; in the experiment on TK-10 renal it was 1.09 µM; in the experiment on HCT-15 colon, 2.05 µM; in the experiment on SK-MEL-2 melanoma, 3.62 µM; in the experiment with OVCAR-4 ovarian, 2.3 µM; in the experiment with OVCAR-8 ovarian, 1.63 µM. Moreover, the GI50 with K-562 leukemia is 5.19 µM; in the experiment with SNB-19 CNS, 12 µM. For the same compound, the TGI in the experiment on UACC-62 melanoma was 26.6 µM; with TK-10 renal, 3.77 µM; in the experiment with HCT-15 colon, 13.6 µM; with SK-MEL-2 melanoma it was 34.9 µM; with OVCAR-4 ovarian it was > 50 µM; in the experiment on OVCAR-8 ovarian it was 11.8 µM. Further, the TGI in the experiment on K-562 leukemia and in the experiment with SNB-19 CNS was > 50 µM throughout.

As to `COc1ccc2nc3cccc([N+](=O)[O-])c3c(NC(C)CN(C)C)c2c1` (stereo not drawn), the GI50 is 1.46 µM in the experiment on UACC-62 melanoma; 2.2 µM in the experiment with TK-10 renal; 3.71 µM in the experiment on HCT-15 colon; 2.21 µM in the experiment with CCRF-CEM leukemia; 2 µM with OVCAR-4 ovarian; 1.54 µM in the experiment with OVCAR-8 ovarian. In addition, the results for the GI50 with K-562 leukemia, in the experiment on SNB-19 CNS and in the experiment with NCI-H226 lung were 1.56 µM, 2.63 µM and 1.75 µM, respectively. Moreover, the TGI in the experiment on UACC-62 melanoma came to 3.05 µM; in the experiment with TK-10 renal, 9.59 µM; with CCRF-CEM leukemia it was 7.62 µM; with OVCAR-4 ovarian, 4.65 µM; in the experiment on OVCAR-8 ovarian, 7.64 µM; in the experiment with K-562 leukemia, 4.03 µM. The TGI in the experiment with SNB-19 CNS came out at 7.91 µM; with NCI-H226 lung it was 4.1 µM.

As to `O=C(c1ccccc1)c1nc2ccc(C(F)(F)F)cc2nc1N1CCN(c2ccccc2)CC1`, the GI50 in the experiment with UACC-62 melanoma is 18.5 µM; with TK-10 renal, 30.7 µM; in the experiment with HCT-15 colon, 20.5 µM; in the experiment with SK-MEL-2 melanoma, 48 µM; with CCRF-CEM leukemia, 21 µM; with OVCAR-8 ovarian, 41.8 µM. The GI50 in the experiment with SNB-19 CNS is 71.5 µM; in the experiment with NCI-H226 lung, 18.2 µM. The TGI in the experiment on UACC-62 melanoma is 43.2 µM; with TK-10 renal it was 74.7 µM; with HCT-15 colon it was 50.1 µM; in the experiment with SK-MEL-2 melanoma, > 100 µM; with CCRF-CEM leukemia, > 100 µM; in the experiment with OVCAR-8 ovarian, > 100 µM. In addition, the TGI is > 100 µM in the experiment on SNB-19 CNS and 46.9 µM in the experiment with NCI-H226 lung.

As for `O=C1CC(CC(OCc2ccccc2)C(OCc2ccccc2)C(COCc2ccccc2)OCc2ccccc2)CC(=O)N1` (stereo not drawn), the TGI is > 100 µM with TK-10 renal; > 100 µM and 47.2 µM in the experiment on HCT-15 colon; > 100 µM with CCRF-CEM leukemia; > 100 µM with OVCAR-4 ovarian; > 100 µM and 48.8 µM in the experiment with OVCAR-8 ovarian; > 100 µM with K-562 leukemia. Besides, the TGI in the experiment with SNB-19 CNS was > 100 µM; with NCI-H226 lung, > 100 µM and 62.4 µM. Also, the GI50 in the experiment on OVCAR-8 ovarian is > 100 µM and 13.7 µM; with SNB-19 CNS, > 100 µM and 33.8 µM; in the experiment on NCI-H226 lung it was > 100 µM and 17.7 µM.

In the case of `NC(=O)c1cc(Br)ccc1NC(=O)/C=C/c1ccccc1`, the GI50 in the experiment with UACC-62 melanoma was 1.24 µM; in the experiment with TK-10 renal, 5.93 µM; in the experiment with HCT-15 colon, 1.38 µM; in the experiment on CCRF-CEM leukemia, 0.803 µM; in the experiment on OVCAR-4 ovarian, 8.85 µM; with OVCAR-8 ovarian, 14.1 µM. In addition, the GI50 is 0.829 µM in the experiment on K-562 leukemia, 5.36 µM in the experiment on SNB-19 CNS and 6.93 µM in the experiment on NCI-H226 lung. Moreover, the TGI is > 100 µM with UACC-62 melanoma; 39.3 µM with TK-10 renal; > 100 µM in the experiment on HCT-15 colon; 9.97 µM in the experiment with CCRF-CEM leukemia; > 100 µM with OVCAR-4 ovarian; > 100 µM in the experiment with OVCAR-8 ovarian. Further, the results for the TGI in the experiment on K-562 leukemia, with SNB-19 CNS and in the experiment on NCI-H226 lung were > 34.4 µM, > 36.9 µM and > 100 µM, respectively.

In the case of `COC12OCCN(C)C1=CC(=O)C1(C)N=NCC12` (stereo not drawn), the TGI in the experiment with UACC-62 melanoma, in the experiment with TK-10 renal, in the experiment with HCT-15 colon, with CCRF-CEM leukemia, in the experiment on OVCAR-8 ovarian and with K-562 leukemia was > 100 µM throughout. Further, in the experiment on NCI-H226 lung, the TGI was > 100 µM.

For the compound `CN1CCN(CCCN2c3ccccc3Sc3ccc(Cl)cc32)CC1`, the GI50 with TK-10 renal is 7.18 µM and 51.8 µM; with HCT-15 colon, 5.12 µM and 48 µM; in the experiment with SK-MEL-2 melanoma it was 40.9 µM; with CCRF-CEM leukemia, 6.46 µM; with OVCAR-4 ovarian, 5.74 µM; in the experiment with OVCAR-8 ovarian, 7.39 µM and 42.8 µM. Further, the GI50 with SNB-19 CNS is 7.05 µM and 60.7 µM. Moreover, the TGI with TK-10 renal is 14.1 µM and 89 µM; in the experiment on HCT-15 colon it was 11.5 µM and 77.8 µM; with SK-MEL-2 melanoma it was 59.5 µM; in the experiment with CCRF-CEM leukemia, 15.1 µM; in the experiment with OVCAR-4 ovarian, 12.4 µM; with OVCAR-8 ovarian, 14.8 µM. In addition, the TGI in the experiment with SNB-19 CNS stood at 14.3 µM.

Take `Nc1ncn([C@H]2C[C@H](OP(=O)(O)OC[C@H]3O[C@@H](n4cnc5c(=O)[nH]c(N)nc54)C[C@@H]3O)[C@@H](CO)O2)c(=O)n1`: the GI50 in the experiment on UACC-62 melanoma was > 100 µM; in the experiment on TK-10 renal, > 100 µM; in the experiment on SK-MEL-2 melanoma, > 100 µM; with CCRF-CEM leukemia it was 9.01 µM; in the experiment on OVCAR-4 ovarian, > 100 µM; with OVCAR-8 ovarian, 26.6 µM. In addition, the GI50 in the experiment with SNB-19 CNS and with NCI-H226 lung was > 100 µM each time. Further, the TGI in the experiment on UACC-62 melanoma, with TK-10 renal, in the experiment on SK-MEL-2 melanoma, with CCRF-CEM leukemia, with OVCAR-4 ovarian and with OVCAR-8 ovarian was > 100 µM in each case. The TGI with SNB-19 CNS and in the experiment with NCI-H226 lung was > 100 µM each time.

Consider `Nc1nn(C(=O)Nc2c(F)cccc2F)c2ccccc12`, for which the GI50 in the experiment on UACC-62 melanoma is 43.9 µM; in the experiment with TK-10 renal, > 100 µM; with HCT-15 colon, 40.9 µM; in the experiment with SK-MEL-2 melanoma it was > 100 µM; with OVCAR-4 ovarian, 57.8 µM; in the experiment with OVCAR-8 ovarian it was 44.2 µM. The GI50 is > 100 µM in the experiment with K-562 leukemia, > 100 µM in the experiment with SNB-19 CNS and 98.5 µM in the experiment with NCI-H226 lung. Also, the TGI with UACC-62 melanoma, with TK-10 renal, in the experiment on HCT-15 colon, in the experiment with SK-MEL-2 melanoma, in the experiment on OVCAR-4 ovarian and in the experiment on OVCAR-8 ovarian was > 100 µM each time. In addition, the TGI with K-562 leukemia, in the experiment on SNB-19 CNS and with NCI-H226 lung was > 100 µM in each case.
